Results from ChEMBL document CHEMBL4229384, “Success stories of natural product-based hybrid molecules for multi-factorial diseases” (Eur J Med Chem, 2018).
≈ marks a conversion by molar mass, not a printed value.

Assays:
[1] = test system: L1210; assay: Antiproliferative activity against mouse L1210 cells after 2 to 3 days by Coulter counter method; assay type: functional, cell-based
[2] = molecular target: DNA; assay: Binding affinity to human estrogen receptor DNA assessed as estrogen receptor PCR product formation; assay type: nucleic-acid assay
[3] = molecular target: DNA; assay: Binding affinity to Ha-ras DNA (unknown origin) assessed as Ha-ras PCR product formation; assay type: nucleic-acid assay
[4] = molecular target: T1, Acetylcholinesterase (Electrophorus electricus, UniProt O42275); assay: Inhibition of electric eel AChE using acetylthiocholine iodide as substrate measured for 120 secs by spectrophotometric analysis
T1 sequence (O42275 whole entry): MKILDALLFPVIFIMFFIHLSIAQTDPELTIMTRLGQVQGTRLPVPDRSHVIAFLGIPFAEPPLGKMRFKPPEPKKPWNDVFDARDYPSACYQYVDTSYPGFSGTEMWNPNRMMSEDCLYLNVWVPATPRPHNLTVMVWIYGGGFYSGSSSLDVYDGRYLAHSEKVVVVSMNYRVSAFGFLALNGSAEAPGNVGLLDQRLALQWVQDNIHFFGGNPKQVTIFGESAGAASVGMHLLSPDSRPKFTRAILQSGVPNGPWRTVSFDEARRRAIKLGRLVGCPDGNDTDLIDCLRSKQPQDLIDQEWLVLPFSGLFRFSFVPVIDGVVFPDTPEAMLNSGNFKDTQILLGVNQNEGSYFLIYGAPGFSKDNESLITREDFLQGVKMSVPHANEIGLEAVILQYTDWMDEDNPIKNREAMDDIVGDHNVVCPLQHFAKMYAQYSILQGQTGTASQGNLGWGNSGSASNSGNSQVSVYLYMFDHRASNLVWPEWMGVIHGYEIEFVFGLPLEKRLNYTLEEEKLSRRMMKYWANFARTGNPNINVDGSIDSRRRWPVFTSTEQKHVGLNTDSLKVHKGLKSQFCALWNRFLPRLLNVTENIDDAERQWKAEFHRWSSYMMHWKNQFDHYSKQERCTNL

[5] = test system: Mycobacterium tuberculosis; assay: Antitubercular activity against Mycobacterium tuberculosis H37Rv; assay type: functional
[6] = molecular target: T1, Acetylcholinesterase; assay: Inhibition of electric eel AChE
[7] = molecular target: Acetylcholinesterase (Electrophorus electricus) (UniProt O42275); assay: Potency index, ratio of galantamine IC50 to test compound IC50 for electric eel AChE
Sequence of Acetylcholinesterase (Electrophorus electricus) (O42275 24-633 limits assumed): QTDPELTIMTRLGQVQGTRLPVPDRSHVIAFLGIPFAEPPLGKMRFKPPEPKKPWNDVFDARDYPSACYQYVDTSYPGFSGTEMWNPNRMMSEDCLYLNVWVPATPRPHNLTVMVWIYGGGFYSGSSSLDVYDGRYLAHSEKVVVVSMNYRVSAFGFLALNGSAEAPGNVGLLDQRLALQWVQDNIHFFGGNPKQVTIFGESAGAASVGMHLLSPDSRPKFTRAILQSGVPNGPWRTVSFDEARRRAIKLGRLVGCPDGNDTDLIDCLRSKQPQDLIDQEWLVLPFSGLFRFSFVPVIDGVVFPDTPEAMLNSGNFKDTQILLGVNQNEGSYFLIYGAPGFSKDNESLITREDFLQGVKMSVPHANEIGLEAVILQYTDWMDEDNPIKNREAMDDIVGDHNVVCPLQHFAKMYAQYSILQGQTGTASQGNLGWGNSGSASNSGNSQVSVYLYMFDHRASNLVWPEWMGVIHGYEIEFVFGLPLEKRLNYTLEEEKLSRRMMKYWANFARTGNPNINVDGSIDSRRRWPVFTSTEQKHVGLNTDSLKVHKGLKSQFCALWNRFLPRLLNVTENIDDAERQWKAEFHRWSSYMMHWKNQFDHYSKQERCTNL

[8] = molecular target: T2, Acetylcholinesterase (Bos taurus, UniProt P23795); assay: Inhibition of bovine erythrocyte AchE using acetylthiocholine iodide as substrate after 15 mins by spectrophotometric analysis
T2 sequence (P23795 whole entry): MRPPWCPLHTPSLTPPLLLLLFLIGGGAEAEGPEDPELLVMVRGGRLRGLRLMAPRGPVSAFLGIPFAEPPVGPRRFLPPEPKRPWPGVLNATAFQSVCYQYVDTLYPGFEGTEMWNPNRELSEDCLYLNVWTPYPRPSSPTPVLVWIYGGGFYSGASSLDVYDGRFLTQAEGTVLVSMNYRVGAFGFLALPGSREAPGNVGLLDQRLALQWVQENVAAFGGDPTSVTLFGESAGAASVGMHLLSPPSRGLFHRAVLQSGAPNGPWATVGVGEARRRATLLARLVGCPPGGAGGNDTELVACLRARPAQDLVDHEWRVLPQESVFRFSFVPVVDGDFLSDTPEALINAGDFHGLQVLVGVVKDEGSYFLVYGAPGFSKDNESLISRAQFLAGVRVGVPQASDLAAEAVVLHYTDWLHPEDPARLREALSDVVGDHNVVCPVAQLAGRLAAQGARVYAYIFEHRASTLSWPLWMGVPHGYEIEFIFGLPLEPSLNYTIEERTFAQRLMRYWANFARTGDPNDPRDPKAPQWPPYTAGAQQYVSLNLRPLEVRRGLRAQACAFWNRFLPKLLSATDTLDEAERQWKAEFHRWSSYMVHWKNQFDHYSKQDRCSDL

[9] = Antiproliferative activity against human MDA435/LCC6 cells; assay type: functional, cell-based; details: MDA-435/LCC6
[10] = molecular target: T3, Phospholipase A2, membrane associated (Homo sapiens) (UniProt P14555); assay: Inhibition of human sPLA2-2A at 100 uM relative to control
T3 sequence (whole entry): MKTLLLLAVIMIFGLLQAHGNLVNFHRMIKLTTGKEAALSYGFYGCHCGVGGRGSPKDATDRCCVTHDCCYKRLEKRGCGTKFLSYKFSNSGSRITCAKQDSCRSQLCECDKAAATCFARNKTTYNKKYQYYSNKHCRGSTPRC

[11] = molecular target: T3, Phospholipase A2, membrane associated (Homo sapiens); assay: Inhibition of human sPLA2-2A assessed as reduction in nitric oxide level at 10 uM relative to control
[12] = molecular target: T3, Phospholipase A2, membrane associated (Homo sapiens); assay: Inhibition of human sPLA2-2A assessed as reduction in PGE2 level at 10 uM relative to control
[13] = test system: A549; assay: Cytotoxicity against human A549 cells assessed as reduction in cell viability; assay type: functional; details: read-out: ED50 (the source's name)
[14] = molecular target: Nitric oxide synthase, inducible (Rattus norvegicus, UniProt Q06518); assay: Inhibition of rat iNOS after 12 to 24 hrs in presence of [gamma32P]ATP by electrophoretic mobility shift assays
Sequence of Nitric oxide synthase, inducible (Q06518 whole entry): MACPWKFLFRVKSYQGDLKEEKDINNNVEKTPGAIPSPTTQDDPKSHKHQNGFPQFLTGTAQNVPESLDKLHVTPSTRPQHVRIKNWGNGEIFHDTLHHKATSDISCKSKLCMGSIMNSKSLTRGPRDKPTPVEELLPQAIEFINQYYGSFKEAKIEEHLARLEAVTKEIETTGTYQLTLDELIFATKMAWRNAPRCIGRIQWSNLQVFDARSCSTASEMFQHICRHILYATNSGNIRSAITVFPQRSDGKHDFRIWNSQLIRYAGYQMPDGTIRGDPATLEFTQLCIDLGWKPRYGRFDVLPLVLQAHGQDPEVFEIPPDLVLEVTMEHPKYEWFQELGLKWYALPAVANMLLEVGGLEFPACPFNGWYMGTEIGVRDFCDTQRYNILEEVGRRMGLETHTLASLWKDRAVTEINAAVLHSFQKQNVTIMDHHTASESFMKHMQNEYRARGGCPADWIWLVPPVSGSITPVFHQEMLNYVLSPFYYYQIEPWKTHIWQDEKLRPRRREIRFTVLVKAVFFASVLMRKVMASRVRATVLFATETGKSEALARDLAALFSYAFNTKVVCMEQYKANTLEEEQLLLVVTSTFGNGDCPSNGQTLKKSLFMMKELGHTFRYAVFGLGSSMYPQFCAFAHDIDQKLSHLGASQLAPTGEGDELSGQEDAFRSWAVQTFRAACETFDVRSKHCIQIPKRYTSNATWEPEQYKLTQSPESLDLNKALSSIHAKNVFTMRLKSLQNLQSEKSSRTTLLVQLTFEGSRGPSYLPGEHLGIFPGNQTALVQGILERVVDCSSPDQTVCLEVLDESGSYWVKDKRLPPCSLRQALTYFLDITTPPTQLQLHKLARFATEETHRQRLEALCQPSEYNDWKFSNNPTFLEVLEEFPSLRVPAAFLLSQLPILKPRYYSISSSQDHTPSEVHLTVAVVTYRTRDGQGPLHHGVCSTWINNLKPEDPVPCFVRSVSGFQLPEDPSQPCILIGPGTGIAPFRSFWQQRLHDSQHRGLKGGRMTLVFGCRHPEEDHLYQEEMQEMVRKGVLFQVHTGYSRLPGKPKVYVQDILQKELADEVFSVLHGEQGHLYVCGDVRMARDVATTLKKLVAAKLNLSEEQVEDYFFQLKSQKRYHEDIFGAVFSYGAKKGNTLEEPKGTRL

With `Cc1n[nH]c2c(O)cc3c(c12)C(CCl)CN3C(=O)c1cc(C(=O)Nc2cc(C(=O)Nc3cc(C(=O)Nc4cc(C(=O)NCCC(=N)N)n(C)c4)n(C)c3)n(C)c2)n(C)n1` (configuration not stated) the IC50 [1] was 7400 nM.
With `COc1cc2c(cc1OCCC(=O)Nc1cc(C(=O)Nc3cc(C(=O)Nc4cc(C(=O)NCCC(=N)N)n(C)c4)n(C)c3)n(C)c1)N=C[C@@H]1CCCN1C2=O` the IC50 [2] was 8000 nM and the IC50 [3] was 8000 nM.
For `COc1ccc2c3c1O[C@H]1C[C@@H](O)CC[C@@]31CCN(CCCCCCCCN1CC[C@@]34C=C[C@H](O)C[C@@H]3Oc3c(OC)ccc(c34)C1)C2`, the IC50 [4] was 230 nM.
Work on `COC(=O)[C@]1(C)CCC[C@@]2(C)[C@@H]3CC[C@@]4(C)C[C@]3(CC[C@@H]21)C/C4=N\NC(=O)c1ccccn1` yielded an MIC [5] of 10 to 20 µg/mL (≈ 22.1 to 44.3 µM).
Work on `COc1ccc2c3c1O[C@H]1C[C@@H](O)C=C[C@]31CC[N+](CCCCCCCCCCN1C(=O)c3ccccc3C1=O)=C2` yielded an IC50 [6] of 22 nM and a Ratio IC50 [7] of 16 to 36.
`CC1CCC2CC(Cc3nc4ccccc4c(N)c32)C1` (configuration not stated) gave an IC50 [8] of 1.3 nM.
Molecule `CC(=O)O[C@H]1C(=O)[C@@]2(C)[C@H]([C@@H]3OC(=O)c4ccccc4OC/C=C/CC[C@H](NC(=O)OC(C)(C)C)[C@@H](O)C(=O)O[C@@H]4C[C@]3(O)C(C)(C)C1=C4C)[C@]1(OC(C)=O)CO[C@@H]1C[C@@H]2O` has an IC50 [9] of 390 nM.
For `C[C@@H](C1=CC[C@@H]2[C@@H]3[C@@H](O)[C@H](O)[C@H]4C[C@@H](O)CC[C@]4(C)[C@H]3CC[C@]12C)[C@@H](O)C1=CC(=O)OC1O` (some centres not stated), the inhibition [10] was 63%, the inhibition [11] was 64% and the inhibition [12] was 72%.
`COc1ccc2c(c1)CC[C@@H]1[C@@H]2CC[C@]2(C)CO[C@@]3(C[C@@H](O)C(CO)=CO3)C[C@@H]12` gave an EC50 [13] of 23000 nM.
With `COC(=O)[C@]1(C)CCC[C@@]2(C)[C@@H]3CC[C@@]4(C)C[C@]3(CC[C@@H]21)C/C4=N\NC(=O)c1ccncc1` the MIC [5] was 10 to 20 µg/mL (≈ 22.1 to 44.3 µM).
`COC(=O)[C@]1(C)CCC[C@@]2(C)[C@@H]3CC[C@@]4(C)C[C@]3(CC[C@@H]21)C/C4=N\NC(=O)c1cccnc1` showed an MIC [5] of 10 to 20 µg/mL (≈ 22.1 to 44.3 µM).
`CC1(C)CC[C@]2(C(=O)O)CC[C@]3(C)C(=CC[C@@H]4[C@@]5(C)C=CC(=O)C=C5CC[C@]43C)[C@@H]2C1` showed an IC50 [14] of 900 nM.
Work on `COc1ccc2c3c1O[C@H]1C[C@@H](O)CC[C@@]31CCN(CCCCCCN1CC[C@@]34C=C[C@H](O)C[C@@H]3Oc3c(OC)ccc(c34)C1)C2` yielded an IC50 [4] of 450 nM.
